Laboratory results from patent publication US9328369B2, “Process for production of useful substance, and surfactant for use in the process” (priority 2009, dated 2016).

Columns and labels:
Format in all cases: cell-based
Escherichia coli(δ) [1] = assay: Production by secretion in microbial culture system, cellulase expressing strain (Table 5); set-up: key to Turbidity: (measured turbidity of diluted culture − blank) × dilution rate; settings: Examples 2-11, surfactant 1 wt %; for Dried cell density: at termination of culturing, obtained from turbidity; for Turbidity: culturing terminated after 48 hours
Protocol: A bglC gene of Bacillus licheniformis was amplified by the PCR method using primers 9 and 10 (Table 4). After being treated with restriction enzymes NcoI and BamHI, a PCR amplified fragment was bound to an NcoI restriction enzyme site and a BamHI restriction enzyme site of a pET-22b plasmid (product of Novagen). Then, the plasmid was transformed into a BL21 (DE3) Escherichia coli strain (product of Novagen) to form Escherichia coli […] that expresses cellulase.
Overnight cultures (1 ml) of Escherichia coli (δ) obtained in Production Example 4 and Escherichia coli (ε) obtained in Production Example 5 were respectively prepared as Comparative Example 2 and Comparative Example 4. An amount of 0.5 ml of each was inoculated in 5 ml of an LB culture solution (containing 100 mg/L of ampicillin) and was shake-cultured at 30° C. for 3 hours. In this manner, pre-culture solutions were prepared. The pre-culture solutions were each inoculated in 50 mL of a culture solution (1.2 g of yeast extract (Nihon Pharmaceutical Co., Ltd.), 0.6 g of polypeptone (Nihon Pharmaceutical Co., Ltd.), 0.47 g of dipotassium phosphate, 0.11 g of monopotassium phosphate, 0.35 g of ammonium sulfate, 0.66 g of disodium phosphate 12-hydrate, 0.02 g of sodium citrate dihydrate, 0.2 g of glycerol, 1.5 g of lactalbumin hydrolysate, 0.3 g of a defoaming agent (Shin-Etsu Chemical Co., Ltd., “KM-70”), 1 mM magnesium sulfate, trace metal solution (18.9 μg of calcium chloride, 500 μg of iron chloride (III), 9.0 μg of zinc sulfate heptahydrate, 5.1 μg of copper sulfate, 6.7 μg of manganese chloride tetrahydrate, 4.9 μg of cobalt chloride, 200 μg of ethylene-diamine-tetraacetic acid tetrasodium salt), 100 mg/L ampicillin). Culturing was initiated with use of a microbial culture system (ABLE Corporation, product name “BioJr. 8”), while the pH value and the temperature were maintained at 6.8 and 30° C. After the culturing was initiated, 0.15 mL of 1M IPTG was added. After 14 hours from the initiation of culturing, instillation of a glycerin/protein solution (50% of glycerin, 50 g/L of lactalbumin hydrolysate, a 33 g/L defoaming agent (Shin-Etsu Chemical Co., Ltd., “KM-70”), 100 mg/L ampicillin) was started. The culturing was terminated after 48 hours from the initiation and the culture solution was recovered. The whole protein in the culture solution was analyzed by SDS-PAGE. Based on the obtained amount of the protein band, the recombinant protein was quantified.
The dried cell density at the termination of the culturing was determined by the following processes (1) to (5):
The dried cell density was determined by applying the measuring results in the process (5) and the process (1) and the volume (L) of the culture solution used in the process (2) to the following formula: Dried cell density (g/L)=([measuring result in process (5)]−[measuring result in process (1)])/0.1.
Performance of this processes for several times clarified the proportional relationship between the turbidity of the culture solution and the dried cell density. Therefore, the dried cell density was obtained from the measured turbidity in each of Comparative Examples 2 to 4 and Examples 2 to 14.
The turbidity of a culture solution that is same as the culture solution used in the measurement of the dried cell density was measured using a turbidimeter (Shimadzu Corporation, UV-1700) and 1 ml of quarts cell.
For measurement, the culture solution was diluted in saline to have an appropriate absorbance. The absorbance of the same culture solution (but not containing bacteria) diluted at the same dilution as above was set as a blank. The turbidity of the culture solution was calculated by using the following formula: Turbidity of culture solution=[(measured turbidity of diluted culture solution)−(measured turbidity of blank)]×dilution rate.
The dried cell density and the turbidity of the culture solution were plotted to construct a graph in FIG. 3. […]

Escherichia coli(δ) [2] = assay: as above; settings: Examples 2-11; surfactant 1 wt %; supernatant of culture solution, SDS-PAGE
Escherichia coli (α) = assay: Screening of secretion efficiency, alkaline phosphatase expressing strain; settings: surfactant 1 wt %; 37° C., 1 hour; ELISA, anti-His-tag antibody
Description: An alkaline phosphatase (phoA) gene of an Escherichia coli strain W3110 was amplified by the PCR method using primers 1 and 2 (Table 4). After being treated with restriction enzymes NdeI and BamHI, a PCR fragment was bound with an NdeI restriction enzyme site and with a BamHI restriction enzyme site of a pET-22b plasmid (product of Novagen). Then, the plasmid was transformed into an AG1 (DE3) Escherichia coli strain formed by transforming an Escherichia coli strain AG1 (product of TOYOBO Co., LTD.) with use of a λDE3 Lysogenization Kit (product of Novagen). In this manner, an alkaline phosphatase expressing strain (a) was formed.
(§1) A pdxA gene of an Escherichia coli strain W3110 was amplified by the PCR method using primers 5 and 6 (Table 4). After being treated with restriction enzymes NdeI and BamHI, a PCR fragment was bound to an NdeI restriction enzyme site and a BamHI restriction enzyme site of a pET-22b plasmid (product of Novagen). Then, the plasmid was transformed into an AG1 (DE3) Escherichia coli strain to form a PdxA expressing strain (γ).
In this manner, culture solutions were prepared.
(2) The strains were collected using a centrifuge (4,000 G, 4° C., 15 minutes). Each of the collected Escherichia coli strains was resuspended in 1 mL of a TB culture solution (product of Difco) and chloramphenicol (30 mg/L) and IPTG (100 μM) were added thereto. Shake culture at 37° C. for 3 hours induced expression of phoA, torA, and pdxA.
(3) Subsequently, harvesting using a centrifuge was carried out again (4,000 G, 4° C., 15 minutes). Each of the collected Escherichia coli strains was resuspended in 2.5 mL of a Tris-NaCl buffer solution (50 mM Tris (pH 7.5), 100 mM NaCl). The resulting solution was divided into 25-μL portions at a time to be mixed with 25 μL of a Tris-NaCl buffer solution.
(4) Then, the solution was allowed to stand at 37° C. for 1 hour. The supernatant solution was collected and diluted in a Tris-NaCl buffer solution to a proper concentration. Here, the quantification of the recombinant protein in the resulting solution was carried out by ELISA assay with use of an anti-His-tag antibody. The sample prior to the centrifugation in the process (3) was treated with ultrasonic waves (200 W, 10 minutes) and the quantification of the recombinant protein therein was similarly carried out by ELISA assay with use of an anti-His-tag antibody. The ratio of lysed bacteria was obtained with use of Escherichia coli (γ), and the secretion efficiencies of the recombinant proteins of Escherichia coli (α) and (β) were calculated by using the following formula. […] Secretion efficiency (%)=100×{(X/Y)−Z}.
In the formula, “X” represents the amount of the recombinant protein in the culture solution after removal of bacterial cells by centrifugation in the case of using Escherichia coli (α) or (β).
“Y” represents the amount of the whole recombinant protein in the culture solution in the case of using Escherichia coli (α) or (β).
“Z” represents the ratio of lysed bacteria obtained with use of Escherichia coli (γ), which is determined by the following formula: Z=Z1/Z2.
In the formula, “Z1” represents the amount of the recombinant protein in the culture solution which remains after removal of bacterial cells by centrifugation in the case of using Escherichia coli (γ).
“Z2” represents the amount of the whole recombinant protein in the culture solution in the case of using Escherichia coli (γ).
Escherichia coli (α) and (β) were each cultured in the same manner as in the above case except that polyoxyethylene (3 mol) tridecyl ether sodium acetate as the surfactant (A) was added right after the resuspension of the Escherichia coli in the buffer solution in the process (3) of A-0, in an amount of 1% by weight on the basis of the weight of the suspension of the bacterium. The secretion efficiency was calculated according to the above-mentioned definition.

Escherichia coli (β) = assay: Screening of secretion efficiency, TorA expressing strain; settings: surfactant 1 wt %; 37° C., 1 hour; ELISA, anti-His-tag antibody
Description: as §1, with “torA” for “pdxA”, “3” for “5”, “4” for “6”, “TorA” for “PdxA”, “(β). Localization of the expressed TorA in a periplasmic fraction was confirmed by conducting an analysis based on the method disclosed in page 121 of Vol. 353 of METHODS IN ENZYMOLOGY (2002).” for “(γ).”
as §1, with “(γ). Localization of the expressed PdxA in a cytoplasmic compartment was confirmed by conducting an analysis based on the method disclosed in page 121 of Vol. 353 of METHODS IN ENZYMOLOGY (2002). […]” for “(γ).”
(4) Then, the solution was allowed to stand at 37° C. for 1 hour. […] Here, the quantification of the recombinant protein in the resulting solution was carried out by ELISA assay with use of an anti-His-tag antibody. The sample prior to the centrifugation in the process (3) was treated with ultrasonic waves (200 W, 10 minutes) and the quantification of the recombinant protein therein was similarly carried out by ELISA assay with use of an anti-His-tag antibody. The ratio of lysed bacteria was obtained with use of Escherichia coli (γ), and the secretion efficiencies of the recombinant proteins of Escherichia coli (α) and (β) were calculated by using the following formula. […]
“Z” represents the ratio of lysed bacteria obtained with use of Escherichia coli (γ), which is determined by the following formula: Z=Z1/Z2. […]

| Compound | Dried cell density (Escherichia coli(δ) [1]) [g/L] | Turbidity (Escherichia coli(δ) [1]) | Quantitative value of produced recombinant protein (Escherichia coli(δ) [2]) [g/L] | Secretion efficiency (%) Escherichia coli (α) (Escherichia coli (α)) [%] | Secretion efficiency (%) Escherichia coli (β) (Escherichia coli (β)) [%] |
| --- | --- | --- | --- | --- | --- |
| CCCCCCCCCCCC[N+](C)(C)CC(=O)[O-] [A-5, Lauryl dimethylamino acetate betaine] | 23.8 | 85 | 2.58 | 87.8 |  |
| CCCCCCCCCCCC(=O)NCCN(CCO)CC(=O)O.[Na] [A-13, Sodium N-lauroyl-N′-carboxymethyl-N′-hydroxyethyl ethylenediamine] | 21.4 | 76.4 | 1.79 | 46.6 |  |
| Palm oil fatty acid amide propyl dimethyl amino acetate betaine [A-3] |  |  |  | 91.3 | 93.6 |
| Sodiumt polyoxyethylene (3 mol) laurylether acetate [A-9] | 14.2 | 50.7 | 1.35 | 63.3 |  |
